{"source": "patent US9060993B2", "about": "“Compositions and methods for treating cancer” (The Trustees of the University of Pennsylvania, priority 2003, dated 2015)", "key": {"ATP citrate lyase": {"target": "T1, ATP citrate lyase (Mus musculus, UniProt Q91V92)", "T1 construct": "is added to mitogen stimulated cell extracts with an IC50 of approximately 3 μM; endogenous in cells; host or cells: IL-3-dependent cell line (FL5.12), mitogen-stimulated; cytosolic extract", "T1 sequence (Q91V92 1-1091)": "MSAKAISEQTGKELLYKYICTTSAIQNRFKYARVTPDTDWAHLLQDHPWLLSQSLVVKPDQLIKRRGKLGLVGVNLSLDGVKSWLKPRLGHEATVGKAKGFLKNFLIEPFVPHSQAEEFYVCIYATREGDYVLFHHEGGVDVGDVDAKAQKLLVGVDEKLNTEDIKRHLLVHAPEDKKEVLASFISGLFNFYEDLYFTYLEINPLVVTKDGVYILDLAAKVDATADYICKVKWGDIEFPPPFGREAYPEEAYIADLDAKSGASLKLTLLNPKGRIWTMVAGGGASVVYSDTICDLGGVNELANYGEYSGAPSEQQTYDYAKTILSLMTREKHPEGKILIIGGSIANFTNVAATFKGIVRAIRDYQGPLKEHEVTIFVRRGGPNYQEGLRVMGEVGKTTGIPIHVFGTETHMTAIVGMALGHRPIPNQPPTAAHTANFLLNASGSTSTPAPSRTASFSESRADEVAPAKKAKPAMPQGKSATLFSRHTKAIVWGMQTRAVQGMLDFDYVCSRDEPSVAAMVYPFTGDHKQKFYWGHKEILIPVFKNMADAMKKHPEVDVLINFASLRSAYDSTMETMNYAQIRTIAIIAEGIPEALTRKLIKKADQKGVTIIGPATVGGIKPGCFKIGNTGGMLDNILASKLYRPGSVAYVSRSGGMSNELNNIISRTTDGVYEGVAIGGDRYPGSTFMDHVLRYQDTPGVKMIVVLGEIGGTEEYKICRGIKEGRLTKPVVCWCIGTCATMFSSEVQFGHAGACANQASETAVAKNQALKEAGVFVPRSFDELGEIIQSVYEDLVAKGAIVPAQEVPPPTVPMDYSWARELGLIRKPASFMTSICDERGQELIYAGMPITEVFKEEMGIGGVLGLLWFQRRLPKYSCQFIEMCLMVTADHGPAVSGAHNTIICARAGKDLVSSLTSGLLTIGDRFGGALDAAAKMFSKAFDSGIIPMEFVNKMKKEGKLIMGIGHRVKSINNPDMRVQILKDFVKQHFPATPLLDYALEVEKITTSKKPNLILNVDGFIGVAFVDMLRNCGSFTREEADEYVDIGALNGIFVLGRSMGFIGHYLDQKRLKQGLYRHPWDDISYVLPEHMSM", "assay": "ATP citrate lyase activity in cellular extracts (malate dehydrogenase coupled, NADH consumption at 340 nm)", "type": "biochemical", "conditions": "mitogen stimulated cell extracts", "experimental": "To investigate the potential induction of ATP citrate lyase in response to mitogen stimulation of cell proliferation, an assay was developed to quantitate ATP citrate lyase (ACL) activity in cellular extracts. As a positive control, stable transfectants of a cell line dependent on IL-3 for the induction of cell proliferation was also produced. The cytosolic extracts from the wild type cells and ATP citrate lyase transfected cells were analyzed by determining the level of ATP citrate lyase activity per 10^6 cells as determined by the malate dehydrogenase catalyzed reduction of oxaloacetate by NADH. NADH consumption was measured by monitoring the reaction at 340 nm. Assays were run by providing citrate at 100 μM in the presence of 5 mM ATP and 300 μM of CoA."}, "FL5.12 cells": {"system": "FL5.12 cells", "assay": "Cell proliferation and survival of IL-3 stimulated FL5.12 cells in culture", "type": "cell-based", "protocol": "As a result, we have investigated the ability of hydroxycitrate to inhibit the proliferative response of FL5.12 cells stimulated by interleukin-3. […] The IC50 of this effect approximates the efficacy of hydroxycitrate in inhibiting ACL-dependent fatty acid synthesis as reported by others (Pearce et al. 1998).\n(§1) When 3-carbox-11-(2,4-dichlorophenyl)-3,5dihydroxyundecanoic acid (see FIG. 4 for structures) is added to mitogen stimulated cell extracts with an IC50 of approximately 3 μM and when cells were treated with a γ-lactone derivative that is cell permeant, the cell proliferation was inhibited at approximately a 10 μM concentration and both cell proliferation and cell survival were inhibited at 30 μM concentrations (FIG. 6)."}, "[1]": {"system": "mitogen-stimulated cells and proliferating transformed cell cultures", "assay": "Cell cycle analysis of mitogen-stimulated cells and proliferating transformed cell cultures", "type": "cell-based", "conditions": "30 μM; FIG. 8", "protocol": "as §1"}, "[2]": {"system": "hematopoietic IL3-dependent cell lines", "assay": "In vitro apoptosis assay (Annexin V / propidium iodide flow cytometry)", "type": "cell-based", "conditions": "30 μM; FIG. 9", "protocol": "Remove 500 μl of treated or untreated cells (at concentrations of 0.5-1×10^6 cells/ml) to a FACS tube and add 50 μl of 10× Annexin V binding buffer (BD Biosciences Pharmingen, San Diego, Calif.) to each tube. Stain cells with Annexin V-FITC (BD Biosciences Phanningen, San Diego, Calif. ) using 4 μl Annexin V-FITC and propidium iodide (Molecular Probes, Eugene, Oreg.) at a final concentration of 3 μg/ml of cells. The cells are preferably hematopoietic IL3-dependent cell lines such as for example IL3-dependent FL5.12 pro-B cells transfected with different transgenes (Bcl-xL, myrAkt) or vector control plasmids and IL3-dependent cells isolated from the bone marrow of Bax−/−Bak−/− knockout mice. Incubate at 37° for 30 minutes. Perform flow cytometry. Early apoptotic cells are Annexin V positive, propidium iodide negative while late apoptotic cells are both Annexin V and propidium iodide positive.\nas §1"}, "[3]": {"system": "cells transfected with the oncogene Bcl-xL", "assay": "Proliferation and cell death of Bcl-xL-transfected cells in presence or absence of the mitogen IL-3", "type": "cell-based", "conditions": "30 μM, FIG. 11"}, "[4]": {"system": "Bax/Bak-deficient, IL-3-dependent cell lines", "assay": "Mitogen-induced cell growth of Bax/Bak-deficient, IL-3-dependent cell lines", "type": "cell-based, mice", "conditions": "30 μM, resting cells treated with IL-3; FIG. 14"}}, "data": [{"smiles": "O=C(O)CC(O)(CC(O)CCCCCCc1ccc(Cl)cc1Cl)C(=O)O", "note": "(centres unmarked) [3-carbox-11-(2,4-dichlorophenyl)-3,5dihydroxyundecanoic acid]", "values": [{"measurement": "IC50", "setting": "ATP citrate lyase", "result": "~3", "unit": "µM"}]}, {"smiles": "O=C(O)CC(O)(C(=O)O)C(O)C(=O)O", "note": "(centres unmarked) [hydroxycitrate]", "values": [{"measurement": "overall cell number and viability of cells in culture", "setting": "FL5.12 cells; added to IL-3-containing cultures of FL5.12, FIG. 3", "result": "progressive decline in the overall cell number and viability"}]}, {"smiles": "O=C(O)C[C@@]1(O)C[C@@H](CCCCCCc2ccc(Cl)cc2Cl)OC1=O", "note": "[γ-lactone derivative]", "values": [{"measurement": "concentration at which both cell proliferation and cell survival were inhibited", "setting": "FL5.12 cells; FIG. 6", "result": 30, "unit": "µM"}, {"measurement": "concentration at which cell proliferation was inhibited", "setting": "FL5.12 cells; cells treated with cell permeant γ-lactone, FIG. 6", "result": "~10", "unit": "µM"}, {"measurement": "inhibition of cell proliferation in each independent cell clone", "setting": "FL5.12 cells; immortalized hematopoietic cells, independent clones, doses between 10 and 30 μM, FIG. 7", "result": "approximately 50%"}, {"measurement": "cell cycle effect", "setting": "[1]", "result": "G1 arrest"}, {"measurement": "annexin-V positivity (induction of apoptosis)", "setting": "[2]", "result": "rapid induction of the annexin-V positivity"}, {"measurement": "cell death", "setting": "[3]; in presence of IL-3", "result": "induction of apoptotic cell death"}, {"measurement": "mitogen-induced cell proliferation", "setting": "[3]; in presence of IL-3", "result": "near complete inhibition"}, {"measurement": "toxicity in nongrowing cells", "setting": "[3]; nongrowing cells (IL-3 withdrawal)", "result": "relatively nontoxic"}, {"measurement": "mitogen-induced cell growth", "setting": "[4]", "result": "nearly completely inhibited"}]}]}
